What was measured:
[1] = tested on: POLCO; test: Post-emergence herbicidal action against POLCO; assay type: in vivo, Polygonum convolvulus; conditions: 320 g/ha, visual rating about 3 weeks after treatment
Experimental: (§1) [table] Seeds of mono- and dicotyledonous weed plants are placed in plastic pots in sandy loam soil (twin sowing with one species each of mono- or dicotyledonous weed plants per pot), covered with soil and cultivated in a greenhouse under controlled growth conditions. 2 to 3 weeks after sowing, the test plants are treated at the one-leaf stage. The compounds of the invention, formulated in the form of wettable powders (WP) or as emulsion concentrates (EC), are applied to the green parts of the plants as aqueous suspension or emulsion with addition of 0.5% additive at a water application rate equivalent to 600 litres per hectare. After the test plants have been kept in the greenhouse under optimum growth conditions for about 3 weeks, the activity of the preparations is rated visually in comparison to untreated controls. For example, 100% activity=the plants have died, 0% activity=like control plants. Tables 5.1-5.16 below show the effects of selected compounds of the general formula (I) according to Tables 1 to 3 on various harmful plants at an application rate corresponding to 1280 or 320 g/ha, which have been obtained by the aforementioned experimental method.

[2] = tested on: AMARE; test: Pre-emergence herbicidal action against AMARE; assay type: in vivo, Amaranthus retroflexus; conditions: scored visually after about 3 weeks vs untreated controls; for Pre-emergence action against AMARE in %: 1280 g/ha
Excerpt: (§2) Seeds of mono- and dicotyledonous weed plants are placed in plastic pots in sandy loam soil (doubly sown with one species each of mono- or dicotyledonous weed plants per pot) and covered with soil. The compounds of the invention, formulated in the form of wettable powders (WP) or as emulsion concentrates (EC), are then applied onto the surface of the covering soil as aqueous suspension or emulsion with addition of 0.5% additive at a water application rate equivalent to 600 litres per hectare. After the treatment, the pots are placed in a greenhouse and kept under good growth conditions for the trial plants. After about 3 weeks, the effect of the preparations is scored visually in comparison with untreated controls as percentages. For example, 100% activity=the plants have died, 0% activity=like control plants. [table] Tables 4.1-4.15 below show the effects of selected compounds of the general formula (I) according to Tables 1 to 3 on various harmful plants at an application rate corresponding to 1280 or 320 g/ha, which have been obtained by the aforementioned experimental method.

[3] = tested on: PHBPU; test: Post-emergence herbicidal action against PHBPU; assay type: in vivo, Pharbitis purpurea; conditions: 320 g/ha, visual rating about 3 weeks after treatment
Experimental: as §1

[4] = tested on: AMARE; test: Post-emergence herbicidal action against AMARE; assay type: in vivo, Amaranthus retroflexus; conditions: visual rating about 3 weeks after treatment
Experimental: as §1

[5] = tested on: VIOTR; test: Post-emergence herbicidal action against VIOTR; assay type: in vivo, Viola tricolor; conditions: 320 g/ha, visual rating about 3 weeks after treatment
Experimental: as §1

[6] = tested on: ECHCG; test: Pre-emergence herbicidal action against ECHCG; assay type: in vivo, Echinochloa crus-galli; conditions: scored visually after about 3 weeks vs untreated controls, 100% = plants have died, 0% = like control plants
Excerpt: as §2

[7] = tested on: MATIN; test: Post-emergence herbicidal action against MATIN; assay type: in vivo, Matricaria inodora; conditions: visual rating about 3 weeks after treatment
Experimental: as §1

[8] = tested on: STEME; test: Post-emergence herbicidal action against STEME; assay type: in vivo, Stellaria media; conditions: visual rating about 3 weeks after treatment
Experimental: as §1

[9] = tested on: VERPE; test: Post-emergence herbicidal action against VERPE; assay type: in vivo, Veronica persica; conditions: 320 g/ha, visual rating about 3 weeks after treatment
Experimental: as §1

[10] = tested on: VERPE; test: Pre-emergence herbicidal action against VERPE; assay type: in vivo, Veronica persica; conditions: 320 g/ha, scored visually after about 3 weeks vs untreated controls
Excerpt: as §2

[11] = tested on: SETVI; test: Pre-emergence herbicidal action against SETVI; assay type: in vivo, Setaria viridis; conditions: 1280 g/ha, scored visually after about 3 weeks vs untreated controls
Excerpt: as §2

[12] = tested on: ECHCG; test: Post-emergence herbicidal action against ECHCG; assay type: in vivo, Echinochloa crus-galli; conditions: 1280 g/ha, post-emergence at one-leaf stage, rated visually after about 3 weeks vs untreated controls
Experimental: as §1

[13] = tested on: STEME; test: Pre-emergence herbicidal action against STEME; assay type: in vivo, Stellaria media; conditions: 1280 g/ha, scored visually after about 3 weeks vs untreated controls
Excerpt: as §2

[14] = tested on: SETVI; test: Post-emergence herbicidal action against SETVI; assay type: in vivo, Setaria viridis; conditions: 1280 g/ha, post-emergence at one-leaf stage, rated visually after about 3 weeks vs untreated controls
Experimental: as §1

Row | SMILES | Pre-emergence action against AMARE in % [2] | Post-emergence action against PHBPU in % [3] | Post-emergence action against AMARE in % ([4]; 1280 g/ha) | Pre-emergence action at 1280 g/ha against ECHCG in % [6] | Post-emergence action against MATIN in % ([7]; 1280 g/ha) | Post-emergence action against STEME in % ([8]; 1280 g/ha) | Post-emergence action against VERPE in % [9] | Pre-emergence action against SETVI in % [11] | Post-emergence action against ECHCG in % [12] | Pre-emergence action against STEME in % [13] | other results
1 | COC(=O)COc1nn(-c2ccccc2)c(-c2ccc(Cl)cc2)c1Cl [I-004] | 90% | 80% | 80% | – | – | – | – | – | – | – | Post-emergence action against POLCO in % [1]: 80%
2 | COC(=O)COc1nn(-c2cccc(F)c2)c(-c2ccc(Cl)cc2)c1Cl [I-005] | – | 80% | 80% | – | – | – | – | – | – | – | Post-emergence action against VIOTR in % [5]: 80%; Post-emergence action against AMARE in % ([4]; 320 g/ha): 80%
3 | COC(=O)COc1nn(-c2ccc(F)cc2)c(-c2ccccc2)c1C#N [I-011] | 90% | – | – | 80% | 90% | 80% | 80% | – | – | – | Post-emergence action against POLCO in % [1]: 80%; Post-emergence action against MATIN in % ([7]; 320 g/ha): 90%
4 | COC(=O)COc1nn(-c2ccc(Cl)cc2)c(-c2cccc(F)c2)c1Cl [I-029] | – | 80% | – | – | – | – | 80% | – | – | – | –
5 | COC(=O)COc1nn(-c2cccc(F)c2)c(-c2cccc(Cl)c2)c1C#N [I-038] | – | 80% | 90% | – | 80% | – | 80% | – | – | – | –
6 | COC(=O)COc1nn(-c2cccc(F)c2)c(-c2cccc(F)c2)c1C#N [I-047] | – | 80% | – | – | – | – | 80% | – | – | – | Post-emergence action against MATIN in % ([7]; 320 g/ha): 80%; Post-emergence action against VIOTR in % [5]: 90%; Pre-emergence action at 320 g/ha against AMARE in % ([2]; 320 g/ha, 100% = plants have died, 0% = like control plants): 90%; Post-emergence action against STEME in % ([8]; 320 g/ha): 80%; Pre-emergence action against VERPE in % [10]: 90%; Post-emergence action against AMARE in % ([4]; 320 g/ha): 80%
7 | CCOC(=O)COc1nn(-c2cc(F)c(F)cc2F)c(-c2ccccc2)c1Cl [I-093] | 100% | – | 100% | 100% | 100% | 100% | – | 100% | 100% | 100% | –
8 | CCOC(=O)COc1nn(-c2cc(F)c(F)cc2F)c(-c2cccc(F)c2)c1Cl [I-097] | 100% | – | – | 100% | 100% | 100% | – | 100% | 100% | 100% | Post-emergence action against SETVI in % [14]: 90%
9 | CCOC(=O)COc1nn(-c2ccc(F)cc2F)c(-c2cccc(F)c2)c1Cl [I-098] | 100% | – | 100% | 100% | 90% | 90% | – | 90% | 100% | 100% | Post-emergence action against SETVI in % [14]: 90%
10 | COC(=O)COc1nn(-c2ccc(F)cc2)c(-c2cccc(F)c2)c1Br [I-107] | 90% | – | 100% | 100% | 100% | 90% | – | 90% | 90% | 100% | –

Source: patent US20230066946A1, “1,5-DIPHENYLPYRAZOLYL-3-OXYALKYL ACIDS AND 1-PHENYL-5-THIENYLPYRAZOLYL-3-OXYALKYL ACIDS AND THE USE THEREOF FOR CONTROL OF UNWANTED PLANT GROWTH” (Bayer Aktiengesellschaft, priority 2019, published 2023)
